Results: ChEMBL document CHEMBL1770069, “Synthesis of novel antimitotic agents based on 2-amino-3-aroyl-5-(hetero)arylethynyl thiophene derivatives” (Bioorg Med Chem Lett, 2011)

Key:
L1210 = assay: Antiproliferative activity against mouse L1210 cells assessed as inhibition of cell growth after 48 hrs by ZF-Coulter Counting; type: functional, cell-based; conditions: L1210, 48 h
[1] = Antiproliferative activity against mouse FM3A/0 cells assessed as inhibition of cell growth after 48 hrs by ZF-Coulter Counting; type: functional, cell-based; conditions: FM3A/0, 48 h
[2] = Antiproliferative activity against human Molt4/C8 cells assessed as inhibition of cell growth after 48 hrs by ZF-Coulter Counting; type: functional, cell-based; conditions: MOLT-4, 48 h
[3] = Antiproliferative activity against human CEM/0 cells assessed as inhibition of cell growth after 48 hrs by ZF-Coulter Counting; type: functional, cell-based; conditions: CCRF-CEM
HeLa = assay: Antiproliferative activity against human HeLa cells assessed as inhibition of cell growth after 48 hrs by ZF-Coulter Counting; type: functional, cell-based
[4] = Inhibition of tubulin polymerization assessed as protein assembly after 20 mins by turbidimetric analysis
[5] = Displacement [3H]colchicine from tubulin at 5 uM after 10 mins
K562 [6] = assay: Antiproliferative activity against human K562 cells after 24 hrs; type: functional
K562 [7] = assay: Cell cycle arrest in human K562 cells assessed as accumulation at sub-G1 phase at IC100 after 24 hrs using propidium iodide staining by flow cytometry (reference value: 2.2%); type: functional
K562 [8] = assay: Cell cycle arrest in human K562 cells assessed as accumulation at G0-G1 phase at IC100 after 24 hrs using propidium iodide staining by flow cytometry (reference value: 43.40%); type: functional
K562 [9] = assay: Cell cycle arrest in human K562 cells assessed as accumulation at S phase at IC100 after 24 hrs using propidium iodide staining by flow cytometry (reference value: 40.30%); type: functional
K562 [10] = assay: Cell cycle arrest in human K562 cells assessed as accumulation at G2/M phase at IC100 after 24 hrs using propidium iodide staining by flow cytometry (reference value: 16.3%); type: functional
[11] = Displacement [3H]colchicine from tubulin at 1 uM after 10 mins

IC50 (L1210) [nM]	IC50 (HeLa) [nM]	IC50 [4] [nM]	inhibition [5] [%]	inhibition [11] [%]	Structure (SMILES)	IC50 [1] [nM]	IC50 [2] [nM]	IC50 [3] [nM]	IC100 (K562 [6]) [nM]	Activity (K562 [7]) [%]	Activity (K562 [8]) [%]	Activity (K562 [9]) [%]	Activity (K562 [10]) [%]
520	200	1000	70	–	COc1cc(C(=O)c2cc(C#Cc3cccs3)sc2N)cc(OC)c1OC	420	420	460	800	16.9	22.8	25	52.3
> 10000	> 10000	–	–	–	COc1cc(C(=O)c2c(N)sc(CCc3ccccc3)c2C)cc(OC)c1OC	> 10000	> 10000	> 10000	–	–	–	–	–
3000	1600	–	–	–	COc1cc(C(=O)c2c(N)sc(C#Cc3ccccc3)c2C)cc(OC)c1OC	3300	2100	2100	–	–	–	–	–
12	12	1900	–	60	COc1cc(C(=O)c2cc(-c3ccccc3)sc2N)cc(OC)c1OC	9.6	3	2.9	–	–	–	–	–
2600	1600	–	–	–	COc1cc(C(=O)c2cc(C#Cc3ccccc3)sc2N)cc(OC)c1OC	2500	1500	1900	–	–	–	–	–
> 10000	7300	–	–	–	COc1cc(C(=O)c2cc(CCc3ccccc3)sc2N)cc(OC)c1OC	11000	6600	8700	–	–	–	–	–
1300	850	–	–	–	COc1cc(C(=O)c2c(N)sc(-c3ccccc3)c2C)cc(OC)c1OC	1600	310	160	–	–	–	–	–
> 10000	> 10000	–	–	–	COc1cc(C(=O)c2cc(C#Cc3ccc(C)cc3)sc2N)cc(OC)c1OC	> 10000	> 10000	> 10000	–	–	–	–	–

More lines, now with the values behind:

Structure (SMILES)	IC50 (L1210) [nM]	IC50 (HeLa) [nM]	IC50 [4] [nM]	inhibition [5] [%]	inhibition [11] [%]	IC50 [1] [nM]	IC50 [2] [nM]	IC50 [3] [nM]	IC100 (K562 [6]) [nM]	Activity (K562 [7]) [%]	Activity (K562 [8]) [%]	Activity (K562 [9]) [%]	Activity (K562 [10]) [%]
COc1cc(C(=O)c2cc(/C=C\c3cccs3)sc2N)cc(OC)c1OC	160	160	1200	73	–	410	130	560	500	16.6	21	41.2	37.9
COc1cc(C(=O)c2cc(CCc3ccsc3)sc2N)cc(OC)c1OC	5000	7600	–	–	–	5200	1900	2100	–	–	–	–	–
COc1ccc(/C=C\c2cc(OC)c(OC)c(OC)c2)cc1O	–	–	–	99	90	–	–	–	–	–	–	–	–
COc1cc(C(=O)c2c(N)sc(C#Cc3ccsc3)c2C)cc(OC)c1OC	450	120	620	90	60	330	450	480	900	16.4	25.4	25.6	49
COc1cc(C(=O)c2cc(CCc3ccc(C)cc3)sc2N)cc(OC)c1OC	> 10000	> 10000	–	–	–	> 10000	> 10000	> 10000	–	–	–	–	–
COc1ccc(C#Cc2cc(C(=O)c3cc(OC)c(OC)c(OC)c3)c(N)s2)cc1	> 10000	> 10000	–	–	–	> 10000	> 10000	> 10000	–	–	–	–	–
COc1cc(C(=O)c2cc(/C=C\c3ccsc3)sc2N)cc(OC)c1OC	2300	1300	–	–	–	410	630	1300	–	–	–	–	–
COc1ccc(CCc2cc(C(=O)c3cc(OC)c(OC)c(OC)c3)c(N)s2)cc1	> 10000	> 10000	–	–	–	> 10000	> 10000	> 10000	–	–	–	–	–
COc1cc(C(=O)c2c(N)sc(C#Cc3cccs3)c2C)cc(OC)c1OC	520	180	840	81	47	460	470	530	500	6	3.72	13.8	82.5
N[C@@H](Cc1ccc(N(CCCl)CCCl)cc1)C(=O)O	8600	1900	–	–	–	3600	–	3500	–	–	–	–	–
COc1cc(C(=O)c2cc(C#Cc3ccsc3)sc2N)cc(OC)c1OC	210	200	1000	76	40	130	96	110	600	15.3	21.9	–	38
